{"source": "patent US20050038022A1", "about": "“Method for treatment of cancer and compositions for use therein” (Unisearch Limited, priority 2001, published 2005)", "key": {"SKHEP-1 cells": {"system": "SKHEP-1 cells", "assay": "Cell counts (trypan blue exclusion)", "assay_type": "cell-based, human", "protocol": "SKHEP-1 cells (2.5×10^4) were plated in six well plates. The cell treatment procedure was as described for the thymidine assay. At the end of the treatment period (1, 3 or 5 days), cells were trypsinized and counted with a hemocytometer using the trypan blue exclusion method. In all experiments, cells treated with the medium containing 0.1% ethanol were taken as the control for albendazole treated cells. All counts were obtained in quadruplicate and each experiment was repeated at least twice."}, "PC3, LNCap and Du 145": {"system": "PC3, LNCap and Du 145", "assay": "Albendazole/ABS proliferation test, prostate cancer cells", "assay_type": "cell-based, human", "conditions": "3 human prostate cell lines", "protocol": "(§1) In order to be able to test ABS, a proper solvent had to be found. […] Therefore to allow direct comparison between the 2 compounds, all subsequent experiments were run using 0.5% DMSO for both ABS and albendazole. In the cell lines examined, albendazole produced very similar results to what we had previously reported for the drug in liver cancer cells.\n(§2) Both albendazole and ABS were tested side by side against various cell lines as follows: • Liver—HepGZ Hep3B, SKHEP-1 • Colorectal—170, LOVO, HT-29 • Prostate—PC3, LNCap, Du145 • Leukeamic—HL60\n(§3) Cells were treated with various concentrations of each compound for a period of 5 days."}, "[1]": {"system": "liver (HepG2, Hep3B, PLC/PRF/5, SKHEP-1, Hep1-6, HTC, Novikoff) and colorectal cancer (C-170, HT-29 and LOVO) cell lines", "assay": "[3H]thymidine incorporation, liver and colorectal cancer cell lines (summary)", "assay_type": "cell-based, human and animal", "conditions": "liver or colorectal cancer cells", "from_the_text": "The present inventors tested BZs and particularly albendazole against a range of liver (HepG2, Hep3B, PLC/PRF/5, SKHEP-1, Hep1-6, HTC, Novikoff) and colorectal cancer (C-170, HT-29 and LOVO) cell lines."}, "HepG2": {"system": "HepG2", "assay": "[3H]thymidine incorporation assay, HepG2", "assay_type": "cell-based, human", "conditions": "5 days", "protocol": "HepG2, Hep3-B, Hep1-6, SKHEP-1, PLC/PRF/5, and HTC cells were obtained from European Collection of Cell Cultures (ECACC; U.K), Novikoff was obtained from Cancer Research Centre (DKFZ) Heidelberg, Germany. Cells were cultured in MEM or DMEM supplemented with 10% FBS, 50 units/ml penicillin, 50 units/ml streptomycin, 25 μg/ml amphotericin B (Gibco, Grand Island, N.Y.) and maintained subconfluent at 37° C. in humidified incubators containing 5% CO2. Albendazole (Sigma, Australian subsidiary) was dissolved in absolute ethanol at concentrations that were 1000-fold higher than the final medium concentration."}, "[2]": {"system": "ovarian cancer cells (NIH:OVCAR-3)", "assay": "DNA laddering (apoptosis), ovarian cancer cells", "assay_type": "cell-based, human", "protocol": "To find out the way albendazole works as an anticancer drug, a large variety of tests can be performed. One of the first is to see if albendazole induces apoptosis. This again is tested in several ways, one of the most common is to check for DNA laddering. […] This is the first time that the induction of apoptosis by albendazole has been reported."}, "LOVO cells": {"system": "LOVO cells", "assay": "DNA laddering (apoptosis), LOVO", "assay_type": "cell-based, human", "conditions": "1 μM, 16 hours", "from_the_text": "Similar results were also obtained with the human colorectal cell line LOVO."}, "NIH:OVCAR-3": {"system": "NIH:OVCAR-3", "assay": "Thymidine assay, ovarian cancer cell line", "assay_type": "cell-based, human", "protocol": "To study the feasibility of using albendazole in the treatment of peritoneal disease, the human ovarian cancer cell line NIH:OVCAR-3 was selected. This is a cell line that grows quite slowly but is tumorogenic in nude mice therefore allowing for the drug to be studied under both in-vitro and in-vivo conditions.\nAfter finding the right conditions for the growth of cells in culture, cells were treated for 5 days with various concentrations of albendazole."}, "[3]": {"system": "liver tumors (CRC or HCC)", "assay": "Albendazole in patients with advanced malignancy (phase 1 trial)", "assay_type": "in vivo, human", "protocol": "The study was single-centre, open and non-controlled. Nine patients (8 male and 1 female) with either advanced CRC and hepatic metastasis or HCC were included in this study. One patient with neuroendocrine cancer and mesothelioma was also treated on a compassionate basis. The patients aged between 38-79 years were inoperable and had failed existing chemotherapy and also, except for two, had measurable and increasing tumor markers. The majority had also already failed hepatic artery chemotherapy. The diagnosis of CRC or HCC was made by ultrasound, CT or MRI scan, confirmed by histology and by determination of CEA or AFP levels for CRC or HCC respectively. Only patients with expected survival of more than one month were enrolled into the study. The study was approved by the Human Ethics Committee for Research of SESAHS. The protocol and the aim of the study was clearly explained to each patient and informed consent obtained. The duration of this study was four weeks but was to be stopped if leukopenia (WBC<[…]) or severe hepatocellular injury (ALT or AST 2× upper limit) developed. All patients received albendazole (400 mg scored tablets, Smith Kline Beecham, Australian subsidiary) 10 mg/kg orally in two or three divided doses for a planned duration of four weeks. This is the clinical dose of albendazole employed in the treatment of parasitic diseases. Patients were evaluated every three days by clinical examination together with full blood tests to monitor tumor markers, hematopoesis, liver and kidney function toxicity. A partial response (PR) was defined as a 50% or more decrease in the value of the markers. In addition there must be no new lesions or progression of any other lesions. Stable disease was defined as a decrease of less than 50%, or an increase of less than 25% in the value of tumor markers, while progressive disease (PD) was a 25% or more increase in the value of the tumor markers or the appearance of any new lesions."}, "[4]": {"system": "liver, colorectal, prostate and leukeamic cell lines", "assay": "Albendazole/ABS side by side in various cell lines (general)", "assay_type": "cell-based", "conditions": "5 days", "protocol": "as §1, §2\nThe fist 9 cell lines were used to compare effectiveness and potency while, the last one was used to assess toxicity on bone marrow (as a rough guide).\nas §3"}}}
{"smiles": "CCCSc1ccc2nc(NC(=O)OC)[nH]c2c1", "note": "[albendazole, methyl 5-propylthio-1H-benzimidazole-2-yl carbamate]", "values": [{"measurement": "number of viable cells compared to control", "setting": "SKHEP-1 cells; SKHEP-1, 1000 nM, p<0.001", "result": "significantly reduced in number"}, {"measurement": "number of viable cells", "setting": "SKHEP-1 cells; SKHEP-1, 1, 3 or 5 days, 100, 500 or 1000 nM (FIG. 2)", "result": "dose dependent decline in the number of cells"}, {"measurement": "sensitivity of prostate cell lines in culture", "setting": "PC3, LNCap and Du 145", "result": "quite sensitive"}, {"measurement": "concentration at which inhibitory activity starts", "setting": "[1]", "result": "around 0.1 micromoles/L"}, {"measurement": "[3H]thymidine incorporation", "setting": "HepG2; HepG2, albendazole 10 nM", "result": "93.1 ± 5.6", "unit": "% control"}, {"measurement": "[3H]thymidine incorporation", "setting": "HepG2; HepG2, albendazole 100 nM", "result": "72.9 ± 6.3", "unit": "% control"}, {"measurement": "[3H]thymidine incorporation", "setting": "HepG2; HepG2, albendazole 500 nM", "result": "12.2 ± 2.9", "unit": "% control"}, {"measurement": "DNA laddering (apoptosis)", "setting": "[2]", "result": "induction of DNA laddering"}, {"measurement": "DNA laddering (apoptosis)", "setting": "LOVO cells", "result": "clear laddering"}, {"measurement": "inhibition at 0.25 µM", "setting": "NIH:OVCAR-3; Homo sapiens, 120 h, OVCAR-3, 0.25 micromoles/L, 5 days", "result": "~90", "unit": "%"}, {"measurement": "inhibition at 0.5 µM", "setting": "NIH:OVCAR-3; Homo sapiens, 120 h, OVCAR-3, 0.5 micromoles/L, 5 days, read-out: inhibition of cell growth", "result": 100, "unit": "%"}, {"measurement": "lowest concentration with an effect on cell proliferation", "setting": "NIH:OVCAR-3; OVCAR-3, 5 days", "result": 0.001, "unit": "µmol/L"}, {"measurement": "inhibition of proliferation (3H-thymidine uptake)", "setting": "NIH:OVCAR-3; OVCAR-3 in vitro (FIG. 5)", "result": "dose dependent inhibition of proliferation"}, {"measurement": "degree of activity relative to liver or colorectal cancer cells", "setting": "NIH:OVCAR-3; OVCAR-3 versus liver or colorectal cancer cells, fold", "result": "~10"}, {"measurement": "disease outcome by tumor markers", "setting": "[3]; 10 mg/kg/day oral, planned 28 days, nine patients (FIG. 6)", "result": "stabilization of the disease in three, and progression of the disease in the other two patients"}, {"measurement": "liver and kidney function tests", "setting": "[3]; during the course of the trial, 10 mg/kg/day oral", "result": "no significant changes"}, {"measurement": "Comments (adverse event)", "setting": "[3]; patient 1, HCC, 19 days treatment", "result": "neutropenia;"}, {"measurement": "Comments (adverse event)", "setting": "[3]; patient 2, CRC, 14 days treatment", "result": "neutropenia;"}, {"measurement": "Comments (adverse event)", "setting": "[3]; patient 8, CRC", "result": "neutropenia"}, {"measurement": "serum CEA levels", "setting": "[3]; patient 9, for the duration of the treatment (4 weeks)", "result": "less than 10 μg/L"}, {"measurement": "disease outcome", "setting": "[3]; patient number 1 (HCC), treatment stopped on day 19", "result": "stabilization of the disease"}, {"measurement": "fatal outcome", "setting": "[3]; patient number 1, after stopping albendazole, almost certainly related to therapy", "result": "died of neutropaenic sepsis"}, {"measurement": "neutropenia", "setting": "[3]; patients 1, 2 and 8, drug had to be withdrawn", "result": "significant neutropenia developed"}, {"measurement": "serum CEA levels", "setting": "[3]; patients 6, 7 and 8, 10 mg/kg/day oral", "result": "stable CEA levels"}, {"measurement": "antiproliferative activity at 0.25 micromoles/L", "setting": "[4]; 0.25 micromoles/L", "result": "dramatically increasing"}, {"measurement": "inhibition at 1 µM", "setting": "[4]; 120 h, 1 micromoles/L", "result": "~100", "unit": "%"}, {"measurement": "concentration at which antiproliferative activity becomes evident", "setting": "[4]; 0.5% DMSO, in general", "result": 0.01, "unit": "µmol/L"}]}
